Values after ≈ are worked out from the molar mass of the structure shown.
Legend:
[1] = test system: H37Rv; test: microbe, parasite or virus in culture; type: cell-based; conditions: Mycobacterium tuberculosis, read-out: MIC
[2] = test system: Mtb H37Rv; type: cell-based, M. tuberculosis
[3] = test system: Erdman (mmpR5 E21K); type: cell-based, M. tuberculosis
[4] = test system: WT Mtb Erdman; type: cell-based, M. tuberculosis; conditions: area under the dose-response curve
[5] = test system: H37Rv (gyrA D94K); type: cell-based, M. tuberculosis
[6] = test system: H37Rv (rpoB S450L); type: cell-based, M. tuberculosis
[7] = test system: mixed mmpL3 mutant pool (24 unique Mtb mmpL3 mutants); type: cell-based, M. tuberculosis
[8] = test system: Mtb; conditions: cited from earlier work

| SMILES | MIC [1] [µg/mL] | Frequency of resistance, 2 × MIC [2] | Frequency of resistance, 8 × MIC [2] | Frequency of resistance, 16 × MIC [2] | EC50 [3] [nM] | WT AUC [4] | MIC, H37Rv (gyrA D94K) [5] [µM] | MIC, H37Rv (rpoB S450L) [6] [µM] | activity (MIC) against the rpoB S450L strain [6] [µg/mL] | Mixed mmpL3 AUC [7] | in vitro frequency of resistance (FoR) [8] |
| --- | --- | --- | --- | --- | --- | --- | --- | --- | --- | --- | --- |
| CC[C@@H](CO)NCCN[C@@H](CC)CO [Ethambutol] | 1 (≈ 4.89 µM) | 3.61 × 10^−6 | 8.57 × 10^−7 | 1.79 × 10^−8 | – | – | – | – | – | – | – |
| COc1nc2ccc(Br)cc2cc1[C@@H](c1ccccc1)[C@@](O)(CCN(C)C)c1cccc2ccccc12 [Bedaquiline] | 2 (≈ 3.6 µM) | 1.43 × 10^−7 | 3.57 × 10^−8 | 3.57 × 10^−8 | 910 | – | – | – | – | – | – |
| Cc1cc2nc(SCC(=O)N(C(C)C)C(C)C)[nH]c2cc1C [MSU-42766] | 0.5 (≈ 1.57 µM) | 1.36 × 10^−6 | 8.0 × 10^−8 | 0 | 1800 | 169.9 | 1.5 (≈ 0.479 µg/mL) | 0.8 (≈ 0.256 µg/mL) | 0.25 | 73.44 | – |
| CC(C)N(C(=O)CNc1nc2cc(Cl)c(Cl)cc2[nH]1)C(C)C [MSU-43165] | – | – | – | – | – | 214.5 | – | – | – | 147.2 | – |
| CO[C@H]1/C=C/O[C@@]2(C)Oc3c(C)c(O)c4c(O)c(c(/C=N/N5CCN(C)CC5)c(O)c4c3C2=O)NC(=O)/C(C)=C\C=C\[C@H](C)[C@H](O)[C@@H](C)[C@@H](O)[C@@H](C)[C@H](OC(C)=O)[C@@H]1C [Rifampicin] | 0.5 (≈ 0.608 µM) | 5.36 × 10^−7 | 7.14 × 10^−8 | 3.57 × 10^−8 | – | – | – | – | – | – | – |
| Cc1ccc2nc(SCC(=O)N(C(C)C)C(C)C)[nH]c2c1 [HC2183] | – | – | – | – | – | 101.7 | – | – | – | 34.08 | – |
| COc1c(N2C[C@@H]3CCCN[C@@H]3C2)c(F)cc2c(=O)c(C(=O)O)cn(C3CC3)c12 [Moxifloxacin] | – | – | – | – | – | – | >5.0 | 0.15 (≈ 0.0602 µg/mL) | – | – | – |
| O=[N+]([O-])c1cn2c(n1)OC[C@@H](OCc1ccc(OC(F)(F)F)cc1)C2 [Pretomanid] | 0.5 (≈ 1.39 µM) | 1.79 × 10^−6 | 8.57 × 10^−7 | 1.43 × 10^−7 | – | – | – | – | – | – | – |
| CC(C)/N=c1\cc2n(-c3ccc(Cl)cc3)c3ccccc3nc-2cc1Nc1ccc(Cl)cc1 [Clofazimine] | – | – | – | – | 1600 | – | – | – | – | – | – |
| NNC(=O)c1ccncc1 [Isoniazid] | 0.125 (≈ 0.911 µM) | 5.0 × 10^−6 | 3.93 × 10^−6 | 2.71 × 10^−6 | – | – | 0.2 (≈ 0.0274 µg/mL) | 0.4 (≈ 0.0549 µg/mL) | – | – | 10^−6 |
| CC(C)N(C(=O)COc1nc2cc(Cl)c(Cl)cc2[nH]1)C(C)C [MSU-43170] | – | – | – | – | – | 247.5 | – | – | – | 160.3 | – |
| CC1COc2c(N3CCN(C)CC3)c(F)cc3c(=O)c(C(=O)O)cn1c23 (centres unmarked) [Ofloxacin] | 1 (≈ 2.77 µM) | 5.36 × 10^−7 | 7.14 × 10^−8 | 3.57 × 10^−8 | – | – | – | – | – | – | – |
